Measurements reported in patent publication US11077039B2, “Topical skin lightening additive and composition with amino acids and nicotinamide compounds” (Conopco, Inc., priority 2016, dated 2021).
Where two headings read alike, the source gives them in different places. Each block holds one molecule with its values, some of them ahead of it.

Legend:
tyrosinase = molecular target: T1, tyrosinase (Homo sapiens, UniProt P14679); test: Tyrosinase activity assay (in situ, melanocyte lysate); format: cell-based; settings: Table 1B, 72 h
T1 construct: host or cells: human primary melanocytes
T1 sequence (P14679 19-529): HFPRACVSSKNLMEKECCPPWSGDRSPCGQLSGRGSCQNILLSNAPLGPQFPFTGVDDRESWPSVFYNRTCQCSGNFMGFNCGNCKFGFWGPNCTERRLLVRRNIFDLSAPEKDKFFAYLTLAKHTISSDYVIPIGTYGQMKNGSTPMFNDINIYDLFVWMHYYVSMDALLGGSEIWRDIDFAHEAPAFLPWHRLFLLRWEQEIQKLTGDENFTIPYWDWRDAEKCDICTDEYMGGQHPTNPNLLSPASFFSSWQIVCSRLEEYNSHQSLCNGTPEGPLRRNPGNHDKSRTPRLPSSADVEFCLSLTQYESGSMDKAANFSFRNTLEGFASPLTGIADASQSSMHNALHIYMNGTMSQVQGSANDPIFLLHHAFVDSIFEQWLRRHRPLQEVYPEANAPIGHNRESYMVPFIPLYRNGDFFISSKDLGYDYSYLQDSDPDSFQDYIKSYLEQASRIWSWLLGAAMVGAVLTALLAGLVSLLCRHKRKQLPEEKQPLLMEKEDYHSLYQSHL
Experimental: Human primary melanocytes (Cascade Biologics, now ThermoFisher Scientific) were grown in melanocytes growth medium (MGM) with human melanocyte growth supplement (both media components from ThermoFisher Scientific). Melanocytes were seeded at 1×10^4 cells/well in a 96 wells plate and cultures left undisturbed for 24 hours in a 5% CO2 humidifed incubator at 37° C. At 24 hrs post-seeding, cells were treated with GAP amino acids or additional test reagents above-described, alone or in combination, as described in examples below and left undisturbed for another 72 hours. Subsequently, cell viability was assessed and the cells were then lysed and progressed for determination of in situ tyrosinase activity. Cultures were rinsed twice with 1× phosphate-buffered saline and lysed with 40 uL of 0.5% TritonX 100 for 1 hr on an ice bed. In situ tyrosinase activity was visualized by addition of 60 μl of 50 mM potassium phosphate buffer (pH 6.8) containing 2 mM DOPA (3,4 dihydroxy phenylalanine) and 4 mM MBTH reagent (3-Methyl-2-Benzothiazolinone hydrazone hydrochloride) for 1 hour at 37° C. The reaction was stopped by the addition of 100 uL of ice-cold 10% tricholoracetic acid and then centrifuged at approximately 300 g for 10 minutes at 4° C. The soluble supernatant was separated from the pellet and the optical density read in a TECAN plate-reader (540 nm filter). The spectrophotometric optical density at 540 nm for untreated cells (media/vehicle) is considered as 100% tyrosinase activity. Tyrosinase activity is expressed after correction for cell numbers (activity/viability) and represented as % control.

[1] = test system: Human primary melanocytes; test: Melanin content assay; format: cell-based; settings: Melanocyte, 72 h
Experimental: Human primary melanocytes (Cascade Biologics, now ThermoFisher Scientific) were grown in melanocytes growth medium (MGM) with human melanocyte growth supplement (both media components from ThermoFisher Scientific). Melanocytes were seeded at 5×10^4 cells/well in 24 well-plates and incubated in a humidified incubator at 37° C. with 5% CO2 atmosphere. After 24 hours of incubation, cell cultures were treated with the GAP amino acids or additional test reagents above-described, alone or in combination, as described in examples below. The vehicle control consisted of cells treated with the vehicle (0.002 mM NaOH) alone. After treatment, cells were again incubated for 72 hours in a humidified incubator at 37° C. with 5% CO2 atmosphere. At the end of the 72 hour incubation, the culture medium was replaced with 120 uL/well of melanin content assay reagent (10% DMSO in 1M sodium hydroxide) and incubated for 1 hour at 60° C. in a shaker incubator. The supernatant was then transferred to a 384 well plate. The absorbance was measured by spectrophotometric analysis at 405 nm with a micro plate reader (GEnios Pro, Tecan).
The spectrophotometric optical density at 405 nm for untreated cells (no active) was considered as 100% melanin content. Relative melanin content for treated samples was calculated with normalization based on the untreated (media/vehide) control.

inhibition at 10 µM (tyrosinase; HR 10 uM): 67%
Structure (SMILES): CCCCCCc1ccc(O)cc1O [HR, 4-hexylresorcinol]
inhibition at 10 µM ([1]; Table 1A, HR 10 uM, read-out: Melanin synthesis inhibition, Mean of % Inhibition): 35%
inhibition at 10 µM ([1]; Table 1C, HR 10 μM, read-out: Melanin synthesis inhibition, Mean of % Inhibition): 26%
inhibition at 10 µM ([1]; Table 1D, HR 10 uM, read-out: Melanin synthesis inhibition, Mean of % Inhibition): 32%
inhibition at 10 µM ([1]; Table 1E, HR 10 uM, read-out: Melanin synthesis inhibition, Mean of % Inhibition): 28%
inhibition at 10 µM ([1]; Table 2, HR 10 uM, read-out: Melanin synthesis inhibition, Mean of % Inhibition): 36%
inhibition at 10 µM ([1]; Table 2B, HR 10 uM, read-out: Melanin Synthesis inhibition, Mean of % Inhibition): 32%

Structure (SMILES): NC(=O)c1ccncc1 [Isonicotinamide, isonicotinamide]
inhibition at 5000 µM ([1]; Table 1D, Isonicotinamide 5 mM, alone or with GAP, read-out: Melanin synthesis inhibition, Mean of % Inhibition): 4%
inhibition at 10000 µM ([1]; Table 1D, Isonicotinamide 10 mM, alone or with GAP, read-out: Melanin synthesis inhibition, Mean of % Inhibition): 20%

Structure (SMILES): CNC(=O)c1cccnc1 [N-methyl Nicotinamide, n-methyl-nicotinamide]
inhibition at 5000 µM ([1]; Table 1C, N-methyl Nicotinamide 5 mM, alone or with GAP, read-out: Melanin synthesis inhibition, Mean of % Inhibition): 0%
inhibition at 10000 µM ([1]; Table 1C, N-methyl Nicotinamide 10 mM, alone or with GAP, read-out: Melanin synthesis inhibition, Mean of % Inhibition): 7%

Structure (SMILES): O=C(O)c1cccnc1 [Niacin, niacin]
inhibition at 5000 µM ([1]; Table 2B, Niacin 5 mM, alone or with GAP, read-out: Melanin Synthesis inhibition, Mean of % Inhibition): -7%
inhibition at 10000 µM ([1]; Table 2B, Niacin 10 mM, alone or with GAP, read-out: Melanin Synthesis inhibition, Mean of % Inhibition): 14%

Structure (SMILES): NC(=O)c1ccc[n+]([C@@H]2O[C@H](CO)[C@@H](O)[C@H]2O)c1 [Nicotinamide Riboside, nicotinamide riboside]
inhibition at 1 µM ([1]; Table 1E, Nicotinamide Riboside 1 uM, alone or with GAP, read-out: Melanin synthesis inhibition, Mean of % Inhibition): 4%
inhibition at 2.5 µM ([1]; Table 1E, Nicotinamide Riboside 2.5 uM, alone or with GAP, read-out: Melanin synthesis inhibition, Mean of % Inhibition): 9%

inhibition at 5000 µM (tyrosinase; Nicotinamide 5 mM, alone or with GAP): 16%
inhibition at 10000 µM (tyrosinase; Nicotinamide 10 mM, alone or with GAP): 24%
Structure (SMILES): NC(=O)c1cccnc1 [Nicotinamide, nicotinamide]
inhibition at 5000 µM ([1]; Table 1A, Nicotinamide 5 mM, alone or with GAP, read-out: Melanin synthesis inhibition, Mean of % Inhibition): 9%
inhibition at 10000 µM ([1]; Table 1A, Nicotinamide 10 mM, alone or with GAP, read-out: Melanin synthesis inhibition, Mean of % Inhibition): 10%

Structure (SMILES): NC(=O)c1ccccn1 [Picolinamide, picolinamide]
inhibition at 5000 µM ([1]; Table 2, Picolinamide 5 mM, alone or with GAP, read-out: Melanin synthesis inhibition, Mean of % Inhibition): 6%
inhibition at 10000 µM ([1]; Table 2, Picolinamide 10 mM, alone or with GAP, read-out: Melanin synthesis inhibition, Mean of % Inhibition): 32%
